≈ marks a conversion by molar mass, not a printed value. Read-outs that look alike come from different tables or passages of the source.
Tests used:
[1] = tested on: S. aureus NRS384 (MRSA - fluoroquinolone susceptible); test: MIC, S. aureus NRS384; assay type: cell-based; details: Staphylococcus aureus, read-out: MIC S. aureus NRS384
[2] = tested on: S. aureus SACPX1-SP25 MSSA - FQ resistant; test: microbe, parasite or virus in culture; assay type: cell-based; details: Staphylococcus aureus, ATCC 29213 / MSSA; Table 2; read-out: MIC S. aureus SACPX1-SP25 MSSA - FQ resistant (isogenic mutant of ATCC 29213)
[3] = tested on: S. aureus (MRSA) ATCC 43300; test: MIC, S. aureus ATCC 43300; assay type: cell-based; details: Staphylococcus aureus; Table 2; read-out: MIC S. aureus (MRSA) ATCC 43300 Heterogeneous MRSA strain
[4] = tested on: Neisseria gonorrhoeae ATCC 49226; test: MIC, N. gonorrhoeae ATCC 49226; assay type: cell-based; details: ATCC49226, Table 4, 24 h incubation
S. aureus NRS70 MRSA = test: MIC, S. aureus NRS70; assay type: cell-based; details: Staphylococcus aureus; Table 2
S. aureus NRS100 MRSA = test: MIC, S. aureus NRS100; assay type: cell-based; details: Staphylococcus aureus; Table 2
[5] = tested on: S. epidermidis NRS101 MRSE; test: MIC, S. epidermidis NRS101; assay type: cell-based; details: Staphylococcus epidermidis; Table 2; read-out: MIC S. epidermidis NRS101 MRSE AMG, ERY resistant
[6] = tested on: S. aureus NRS107 MUP resistant; test: MIC, S. aureus NRS107; assay type: cell-based; details: Staphylococcus aureus, Table 2
[7] = tested on: S. aureus VRS1 MRSA VAN resistant; test: MIC, S. aureus VRS1; assay type: cell-based; details: Staphylococcus aureus, Table 2
[8] = tested on: Neisseria meningitidis ATCC 13090; test: MIC, N. meningitidis ATCC 13090; assay type: cell-based; details: ATCC13090, Table 4, 24 h incubation
[9] = tested on: Streptococcus pneumoniae ATCC BAA-255; test: MIC, S. pneumoniae ATCC BAA-255; assay type: cell-based; details: ATCCBAA255, Table 2
[10] = tested on: Enterococcus faecium ATCC 19434; test: MIC, E. faecium ATCC 19434; assay type: cell-based; details: ATCC19434, Table 2
S. aureus NRS1 MRSA = test: MIC, S. aureus NRS1; assay type: cell-based; details: Staphylococcus aureus; Table 2; read-out: MIC S. aureus NRS1 MRSA AMG & TET resistant
[11] = tested on: Legionella pneumophila ATCC 33152; test: microbe, parasite or virus in culture; assay type: cell-based; details: ATCC33152, 48 h, read-out: MIC Legionella pneumophila ATCC 33152
[12] = tested on: Haemophilus influenzae ATCC 49247; test: MIC, H. influenzae ATCC 49247; assay type: cell-based; details: ATCC49247, Table 4
S. aureus VRS8 = test: MIC, S. aureus VRS8; assay type: cell-based; details: Staphylococcus aureus, MRSA, read-out: MIC S. aureus VRS8
[13] = tested on: all strains of S. aureus tested; test: Antibacterial susceptibility, all S. aureus strains tested; assay type: cell-based, Staphylococcus aureus; details: including strains resistant to fluoroquinolone and other antibiotics
[14] = tested on: S. aureus NRS482 MRSA FQ resistant; test: MIC, S. aureus NRS482; assay type: cell-based; details: Staphylococcus aureus; Table 2
[15] = tested on: Mycobacterium smegmatis ATCC 19420; test: MIC, M. smegmatis ATCC 19420; assay type: cell-based; details: Mycolicibacterium smegmatis, ATCC19420; Table 4, 72 h incubation
[16] = tested on: S. aureus NRS106 (fluoroquinolone susceptible MSSA); test: MIC, S. aureus NRS106; assay type: cell-based; details: Staphylococcus aureus
[17] = tested on: S. aureus SACPX1-SP28 (MSSA - fluoroquinolone resistant); test: MIC, S. aureus SACPX1-SP28; assay type: cell-based; details: Staphylococcus aureus, read-out: MIC S. aureus SACPX1-SP28
[18] = tested on: Moraxella catarrhalis ATCC 25240; test: MIC, M. catarrhalis ATCC 25240; assay type: cell-based; details: ATCC25240, Table 4
[19] = tested on: Mycobacterium tuberculosis H37Rv; test: MIC, M. tuberculosis H37Rv; assay type: cell-based; details: virulent tuberculosis-causative strain
[20] = tested on: S. aureus NRS127 MRSA LZD resistant; test: MIC, S. aureus NRS127; assay type: cell-based; details: Staphylococcus aureus; Table 2
[21] = tested on: human hepatic cell line (HepG2 ATCC HB-8065); test: Human cell viability assay (CellTiter-Glo), HepG2; assay type: cell-based; details: HepG2, 24 h incubation, tested over 1-128 μg/mL, read-out: IC50 values against HepG2
Procedure, shortened: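 HepG2 seeded at 20,000 cells/well, then after 24 h given two-fold serial dilutions (1-128 μg/mL, 1% DMSO) in DMEM with 0.001% FBS and 0.3% albumin. After 24 h at 37 °C, ATP luminescence (CellTiter-Glo) read; IC50 is the concentration halving viability.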

S. aureus NRS271 = test: MIC, S. aureus NRS271; assay type: cell-based; details: Staphylococcus aureus, MRSA / NRS 271, read-out: MIC S. aureus NRS271
[22] = tested on: Staphylococcus aureus ATCC 29213; test: MIC, broth microdilution, S. aureus ATCC 29213; assay type: cell-based
S. aureus NRS108 = test: MIC, S. aureus NRS108; assay type: cell-based; details: Staphylococcus aureus, MRSA / NRS 108, read-out: MIC S. aureus NRS108
[23] = tested on: Escherichia coli ATCC 25922; test: MIC, broth microdilution, E. coli ATCC 25922; assay type: cell-based; details: ATCC25922, Table 1, wild type strain
S. aureus NRS74 = test: MIC, S. aureus NRS74; assay type: cell-based; details: Staphylococcus aureus, MRSA / NRS 74, read-out: MIC S. aureus NRS74

Q: What does the source list for Cc1c(-c2cc(F)c(N)cc2F)ccc2c3ocnc3c(=O)n(C3CC3)c12 [Compound 1, 7-(4-amino-2,5-difluoro-phenyl)-5-cyclopropyl-6-methyl-oxazolo[4,5-c]quinolin-4-one]?
A: MIC [1]: < 1 µg/mL; MIC [2]: < 1 µg/mL; MIC [3]: < 1 µg/mL; MIC [4]: < 1 µg/mL; MIC (S. aureus NRS70 MRSA): < 1 µg/mL; MIC (S. aureus NRS100 MRSA): < 1 µg/mL; MIC [5]: < 1 µg/mL; MIC [6]: < 1 µg/mL; MIC [7]: < 1 µg/mL; MIC [8]: < 1 µg/mL; MIC [9]: 1 to 10 µg/mL (≈ 2.72 to 27.2 µM); MIC [10]: > 100 µg/mL; MIC (S. aureus NRS1 MRSA): < 1 µg/mL; MIC [11]: < 1 µg/mL; MIC [12]: < 1 µg/mL; MIC (S. aureus VRS8): < 1 µg/mL; activity against all strains of S. aureus tested [13]: excellent activity; MIC [14]: < 1 µg/mL; MIC [15]: < 1 µg/mL; MIC [16]: < 1 µg/mL; MIC [17]: < 1 µg/mL; MIC [18]: < 1 µg/mL; MIC [19]: < 8 µg/mL; MIC [20]: < 1 µg/mL; IC50 [21]: > 100 µg/mL; MIC (S. aureus NRS271): < 1 µg/mL; MIC ([22]; ATCC29213, Table 1, wild type strain, read-out: MIC S. aureus ATCC 29213): < 1 µg/mL; MIC ([22]; ATCC 29213 / MSSA, Table 2, read-out: MIC S. aureus (MSSA) ATCC 29213 CLSI control strain): < 1 µg/mL; MIC (S. aureus NRS108): < 1 µg/mL; MIC [23]: > 100 µg/mL; MIC (S. aureus NRS74): < 1 µg/mL
